18 molecules from patent US10730870B2, “Compounds and methods for the enhanced degradation of targeted proteins” (Arvinas, Inc., priority 2015, dated 2020) can be followed below.

The assay concerns the target VHL (Homo sapiens (Human), UniProt P40337). Kind of assay: VHL fluorescence polarization (FP) competition assay. Type of assay: binding. On the technique in general: Fluorescence polarisation rises when a labelled molecule tumbles more slowly, as on binding a larger partner.

Molecules are shown by their SMILES.

A word on the IC50: it is the concentration needed to halve the response being measured. Low readings indicate inhibition by little substance, high ones a need for much substance. As for `Cc1ncsc1-c1ccc(CNC(=O)[C@@H]2C[C@@H](O)CN2C(=O)[C@@H](NC(=O)CCc2ccccc2)C(C)(C)C)cc1` [Example 44, (2S,4R)-1-((S)-3,3-dimethyl-2-(3-phenylpropanamido)butanoyl)-4-hydroxy-N-(4-(4-methylthiazol-5-yl)benzyl)pyrrolidine-2-carboxamide], the IC50 is, setting by setting: (1% in DMSO) 0.385 µM; (10% in DMSO) 0.465 µM. `CC(C)[C@@H](C(=O)N1C[C@H](O)C[C@H]1C(=O)NCc1ccc(-c2ccno2)cc1)N1Cc2ccccc2C1=O` [Example 136, (2S,4R)-4-hydroxy-N-(4-(isoxazol-5-yl)benzyl)-1-((S)-3-methyl-2-(1-oxoisoindolin-2-yl)butanoyl)pyrrolidine-2-carboxamide]: the IC50 (1% in DMSO) is 5.59 µM.

Regarding `Cc1ncsc1-c1ccc(CNC(=O)[C@@H]2C[C@@](C)(O)CN2C(=O)[C@H](C(C)C)N2Cc3ccccc3C2=O)cc1` [Example 142, (2S,4R)-4-hydroxy-4-methyl-1-((S)-3-methyl-2-(1-oxoisoindolin-2-yl)butanoyl)-N-(4-(4-methylthiazol-5-yl)benzyl)pyrrolidine-2-carboxamide], the IC50 (1% in DMSO) is 134 µM. As to `Cc1ncsc1-c1ccc(CNC(=O)[C@@H]2C[C@@H](O)CN2C(=O)[C@@H](NC(=O)c2ccccc2)C(C)(C)C)cc1` [Example 29, (2S,4R)-1-((S)-2-benzamido-3,3-dimethylbutanoyl)-4-hydroxy-N-(4-(4-methylthiazol-5-yl)benzyl)pyrrolidine-2-carboxamide], the IC50 was 2.42 µM (0.25% in DMSO), 0.905 µM (1% in DMSO) and 1.85 µM (10% in DMSO). Turning to `CCC1(C(=O)NCc2ccc(-c3scnc3C)cc2)C[C@@H](O)CN1C(=O)c1cccc(OC)c1` (stereo partly drawn) [Example 67, (4R)-2-ethyl-4-hydroxy-1-(3-methoxybenzoyl)-N-(4-(4-methylthiazol-5-yl)benzyl)pyrrolidine-2-carboxamide], the “VHL FP Assay IC50” value is given as “Not Active” (1% in DMSO) and “Not Active” (10% in DMSO). In turn, `Cc1ncsc1-c1ccc(CNC(=O)[C@@H]2C[C@@H](O)CN2C(=O)[C@@H](NC(=O)C(C)(C)C)C(C)(C)C)cc1` [Example 14, (2S,4R)-1-((S)-3,3-dimethyl-2-pivalamidobutanoyl)-4-hydroxy-N-(4-(4-methylthiazol-5-yl)benzyl)pyrrolidine-2-carboxamide] returned an IC50 (0.25% in DMSO) of 7.15 µM, an IC50 (1% in DMSO) of 4.63 µM and an IC50 (10% in DMSO) of 13.3 µM. With `Cc1ncsc1-c1ccc(CNC(=O)[C@@H]2C[C@@H](O)CN2C(=O)[C@@H](NC(=O)c2ccc(C#N)cc2)C(C)(C)C)cc1` [Example 43, (2S,4R)-1-((S)-2-(4-cyanobenzamido)-3,3-dimethylbutanoyl)-4-hydroxy-N-(4-(4-methylthiazol-5-yl)benzyl)pyrrolidine-2-carboxamide], the IC50 reads like this: (1% in DMSO) 0.906 µM; (10% in DMSO) 1.2 µM. On to `CC[C@H](C)[C@H](NC(=O)CCC(C)C)C(=O)N1C[C@H](O)C[C@H]1C(=O)NCc1ccc(-c2scnc2C)cc1` [Example 31, (2S,4R)-4-hydroxy-1-((2S,3S)-3-methyl-2-(4-methylpentanamido)pentanoyl)-N-(4-(4-methylthiazol-5-yl)benzyl)pyrrolidine-2-carboxamide], for which the IC50 is 3.22 µM (0.25% in DMSO), 1.28 µM (1% in DMSO) and 2.11 µM (10% in DMSO). `COc1ccc(C)c(C(=O)N2C[C@H](O)C[C@H]2C(=O)NCc2ccc(-c3scnc3C)cc2)c1` [Example 95, (2S,4R)-4-hydroxy-1-(5-methoxy-2-methylbenzoyl)-N-(4-(4-methylthiazol-5-yl)benzyl)pyrrolidine-2-carboxamide] displayed an IC50 (1% in DMSO) of 23.4 µM. `CC(C)[C@@H](C(=O)N1C[C@H](O)C[C@H]1C(=O)NCc1ccc(C2CCCCC2)cc1)N1Cc2ccccc2C1=O` [Example 117, (2S,4R)—N-(4-cyclohexylbenzyl)-4-hydroxy-1-((S)-3-methyl-2-(1-oxoisoindolin-2-yl)butanoyl)pyrrolidine-2-carboxamide] displayed an IC50 (1% in DMSO) of 15.5 µM. Still for that read-out and setting: then `Cc1ncn(C)c1-c1ccc(CNC(=O)[C@@H]2C[C@@H](O)CN2C(=O)[C@H](C(C)C)N2Cc3ccccc3C2=O)cc1` [Example 103, (2S,4R)—N-(4-(1,4-dimethyl-1H-imidazol-5-yl)benzyl)-4-hydroxy-1-((S)-3-methyl-2-(1-oxoisoindolin-2-yl)butanoyl)pyrrolidine-2-carboxamide], with 33.8 µM. For `Cc1ncsc1-c1ccc(CNC(=O)[C@@H]2C[C@@H](O)CN2C(=O)[C@@H](NC(=O)C2CCCCC2)C(C)(C)C)cc1` [Example 36, (2S,4R)-1-((S)-2-(cyclohexanecarboxamido)-3,3-dimethylbutanoyl)-4-hydroxy-N-(4-(4-methylthiazol-5-yl)benzyl)pyrrolidine-2-carboxamide], the IC50 reads like this: (0.25% in DMSO) 6.54 µM; (1% in DMSO) 3.55 µM; (10% in DMSO) 5.48 µM. As for `COc1cccc(C(=O)N2C[C@H](O)CC2(C)C(=O)NCc2ccc(-c3scnc3C)cc2)c1` (stereo partly drawn) [Example 66, (4R)-4-hydroxy-1-(3-methoxybenzoyl)-2-methyl-N-(4-(4-methylthiazol-5-yl)benzyl)pyrrolidine-2-carboxamide], the “VHL FP Assay IC50” value was “Not Active” (1% in DMSO) and “Not Active” (10% in DMSO).

`Cc1ncsc1-c1ccc(CNC(=O)[C@@H]2C[C@@H](O)CN2C(=O)[C@@H](NC(=O)CCC2CCCCC2)C(C)(C)C)cc1` [Example 20, (2S,4R)-1-((S)-2-(3-cyclohexylpropanamido)-3,3-dimethylbutanoyl)-4-hydroxy-N-(4-(4-methylthiazol-5-yl)benzyl)pyrrolidine-2-carboxamide]: the IC50 by setting is: (0.25% in DMSO) 4.96 µM; (1% in DMSO) 1.05 µM; (10% in DMSO) 1.15 µM. `CC[C@H](C)[C@@H](C(=O)N1C[C@H](O)C[C@H]1C(=O)NCc1ccc(-c2scnc2C)cc1)N1Cc2ccc(F)cc2C1=O` [Example 94, (2S,4R)-1-((2S,3S)-2-(6-fluoro-1-oxoisoindolin-2-yl)-3-methylpentanoyl)-4-hydroxy-N-(4-(4-methylthiazol-5-yl)benzyl)pyrrolidine-2-carboxamide] yielded an IC50 (1% in DMSO) of 0.566 µM.

On to `COc1cccc(C(=O)N2C[C@H](O)C[C@H]2C(=O)NCc2ccc(-c3scnc3C)cc2)c1` [Example 63, (2S,4R)-4-hydroxy-1-(3-methoxybenzoyl)-N-(4-(4-methylthiazol-5-yl)benzyl)pyrrolidine-2-carboxamide], for which the IC50 by setting is: (1% in DMSO) 58.4 µM; (10% in DMSO) 53 µM. `COc1ccc2c(c1)CN([C@H](C(=O)N1C[C@H](O)C[C@H]1C(=O)NCc1ccc(-c3scnc3C)cc1)C(C)C)C2=O` [Example 72, (2S,4R)-4-hydroxy-1-((S)-2-(5-methoxy-1-oxoisoindolin-2-yl)-3-methylbutanoyl)-N-(4-(4-methylthiazol-5-yl)benzyl)pyrrolidine-2-carboxamide] gave an IC50 (1% in DMSO) of 0.86 µM and a half-inhibitory concentration (IC50) (10% in DMSO) of 1.03 µM. For the molecule `CC(C)[C@@H](C(=O)N1C[C@H](O)C[C@H]1C(=O)NCc1ccc(C2=CCCC2)cc1)N1Cc2ccccc2C1=O` [Example 116, (2S,4R)—N-(4-cyclopentenylbenzyl)-4-hydroxy-1-((S)-3-methyl-2-(1-oxoisoindolin-2-yl)butanoyl)pyrrolidine-2-carboxamide], the IC50 (1% in DMSO) stood at 3.9 µM.
